We go through twelve compounds from BindingDB's records for doi:10.1111/cbdd.12811 (Università di Bari Aldo Moro, 2016).

Assay [1] deals with ATP-dependent translocase ABCB1 (Homo sapiens, UniProt P08183). Briefly: Calcein-AM Assay. As to the method:
(§1) MDCK-MDR1 or MDCK-MRP1 cells (50,000 cells per well) were seeded into black CulturePlate (96-well plate) with 100 μL medium and allowed to become confluentovernight. Hundred microliters of test compounds was solubilized in culture medium and added to monolayers. 96/wells plate was incubated at 37 °C for 30 min. Calcein-AM was added in 100 μL of phosphate-buffered saline (PBS) to yield a final concentration of 2.5 μm, and plate was incubated for 30 min. Each well was washed three times with ice-cold PBS.

Assay [2] addresses Multidrug resistance-associated protein 1 (Homo sapiens, UniProt P33527). Briefly: Calcein-AM Assay. As to the method: as §1

Sequence of ATP-dependent translocase ABCB1 (P08183 whole entry): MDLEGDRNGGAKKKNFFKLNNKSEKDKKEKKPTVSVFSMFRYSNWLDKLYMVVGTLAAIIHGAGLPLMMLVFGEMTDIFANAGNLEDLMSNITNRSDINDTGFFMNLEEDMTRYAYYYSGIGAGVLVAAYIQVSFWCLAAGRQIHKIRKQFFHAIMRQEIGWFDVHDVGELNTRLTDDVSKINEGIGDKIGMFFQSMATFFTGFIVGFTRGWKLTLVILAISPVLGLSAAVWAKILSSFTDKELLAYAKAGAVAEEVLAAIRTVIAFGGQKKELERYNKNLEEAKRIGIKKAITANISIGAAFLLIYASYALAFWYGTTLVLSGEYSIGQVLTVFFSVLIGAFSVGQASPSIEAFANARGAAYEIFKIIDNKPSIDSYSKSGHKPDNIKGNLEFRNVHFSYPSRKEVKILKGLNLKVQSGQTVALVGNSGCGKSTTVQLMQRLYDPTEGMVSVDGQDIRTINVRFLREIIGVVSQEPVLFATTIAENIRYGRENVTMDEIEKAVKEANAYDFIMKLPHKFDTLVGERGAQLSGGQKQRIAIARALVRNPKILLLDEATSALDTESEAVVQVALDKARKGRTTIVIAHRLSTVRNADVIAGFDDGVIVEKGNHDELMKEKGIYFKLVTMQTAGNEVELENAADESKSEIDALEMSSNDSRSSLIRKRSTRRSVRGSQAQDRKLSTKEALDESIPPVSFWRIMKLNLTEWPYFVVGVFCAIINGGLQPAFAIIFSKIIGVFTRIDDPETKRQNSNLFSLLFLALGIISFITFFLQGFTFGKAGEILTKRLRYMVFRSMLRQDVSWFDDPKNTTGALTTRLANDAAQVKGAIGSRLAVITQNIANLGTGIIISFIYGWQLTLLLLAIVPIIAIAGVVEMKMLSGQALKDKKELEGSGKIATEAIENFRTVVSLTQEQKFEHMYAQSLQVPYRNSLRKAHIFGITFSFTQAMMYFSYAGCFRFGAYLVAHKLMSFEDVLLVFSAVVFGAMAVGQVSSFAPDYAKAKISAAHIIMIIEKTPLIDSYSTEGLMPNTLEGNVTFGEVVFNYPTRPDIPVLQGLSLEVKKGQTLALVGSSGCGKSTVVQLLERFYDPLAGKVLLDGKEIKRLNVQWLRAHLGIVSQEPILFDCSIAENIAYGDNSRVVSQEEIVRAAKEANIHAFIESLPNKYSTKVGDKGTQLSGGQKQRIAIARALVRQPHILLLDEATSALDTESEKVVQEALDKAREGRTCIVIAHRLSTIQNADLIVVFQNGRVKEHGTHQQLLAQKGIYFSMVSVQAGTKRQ
Sequence of Multidrug resistance-associated protein 1 (P33527 whole entry): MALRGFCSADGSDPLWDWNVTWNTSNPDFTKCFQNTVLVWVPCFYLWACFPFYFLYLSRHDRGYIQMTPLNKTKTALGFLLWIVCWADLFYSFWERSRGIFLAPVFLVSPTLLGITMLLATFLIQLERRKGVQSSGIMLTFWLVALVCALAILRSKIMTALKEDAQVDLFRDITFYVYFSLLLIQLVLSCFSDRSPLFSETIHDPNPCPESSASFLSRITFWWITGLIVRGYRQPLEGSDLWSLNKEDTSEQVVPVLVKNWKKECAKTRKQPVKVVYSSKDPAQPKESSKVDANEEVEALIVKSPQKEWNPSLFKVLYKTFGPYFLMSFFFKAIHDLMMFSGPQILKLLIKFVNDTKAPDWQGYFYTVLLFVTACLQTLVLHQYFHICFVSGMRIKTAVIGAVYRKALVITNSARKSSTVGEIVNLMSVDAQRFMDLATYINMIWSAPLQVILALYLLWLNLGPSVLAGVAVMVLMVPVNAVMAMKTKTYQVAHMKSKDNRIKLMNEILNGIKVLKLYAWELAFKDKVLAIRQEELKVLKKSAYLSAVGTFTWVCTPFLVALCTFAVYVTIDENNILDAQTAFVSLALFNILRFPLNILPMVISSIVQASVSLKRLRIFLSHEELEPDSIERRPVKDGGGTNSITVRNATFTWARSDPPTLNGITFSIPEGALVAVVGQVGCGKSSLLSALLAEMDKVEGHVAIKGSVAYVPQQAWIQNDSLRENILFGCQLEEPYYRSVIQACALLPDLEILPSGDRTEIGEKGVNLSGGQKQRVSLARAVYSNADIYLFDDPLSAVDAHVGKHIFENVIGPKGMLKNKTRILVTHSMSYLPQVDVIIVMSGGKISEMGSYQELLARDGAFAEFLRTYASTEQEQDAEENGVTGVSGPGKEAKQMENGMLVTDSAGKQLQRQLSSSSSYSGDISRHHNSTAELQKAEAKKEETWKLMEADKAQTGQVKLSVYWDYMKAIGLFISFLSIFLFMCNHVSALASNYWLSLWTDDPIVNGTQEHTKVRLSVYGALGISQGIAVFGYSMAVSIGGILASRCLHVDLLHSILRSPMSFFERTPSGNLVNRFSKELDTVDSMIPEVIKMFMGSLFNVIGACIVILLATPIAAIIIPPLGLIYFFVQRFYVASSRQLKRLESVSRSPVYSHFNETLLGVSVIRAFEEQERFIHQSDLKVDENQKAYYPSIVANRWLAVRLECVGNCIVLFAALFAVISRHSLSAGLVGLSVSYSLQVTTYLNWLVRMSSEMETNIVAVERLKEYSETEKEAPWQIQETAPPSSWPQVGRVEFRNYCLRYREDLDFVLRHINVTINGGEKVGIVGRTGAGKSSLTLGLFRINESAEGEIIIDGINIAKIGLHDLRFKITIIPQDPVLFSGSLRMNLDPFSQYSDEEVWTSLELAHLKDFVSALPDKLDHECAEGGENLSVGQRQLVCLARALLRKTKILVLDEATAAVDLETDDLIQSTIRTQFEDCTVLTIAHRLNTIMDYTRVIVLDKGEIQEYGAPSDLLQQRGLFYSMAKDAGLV

What is called IC50 is the concentration that inhibits the measured activity by half. Turning to `COc1cc(C(=O)Nc2ccc(Br)cc2)cc(OC)c1OC`, the concentration for half-maximal inhibition (IC50) in assay [1] is 27 µM.
For `COc1ccccc1NC(=O)c1ccc(OC)c(OC)c1OC` [2,3,4-Trimethoxy-N-(2-methoxy-phenyl)-benzamide (15)], the half-inhibitory concentration (IC50) in assay [1] is 30.4 µM; in assay [2] it was 71 µM.
`COc1ccc(C(=O)Nc2ccccc2)c(OC)c1OC` [2,3,4-Trimethoxy-N-phenyl-benzamide (7)]: the half-inhibitory concentration (IC50) in assay [1] and in assay [2] was over 100 µM each time.
For `COc1ccccc1NC(=O)c1cc(OC)c(OC)cc1OC` [2,4,5-Trimethoxy-N-(2-methoxy-phenyl)-benzamide (14)], the IC50 is 3.52 µM in assay [1] and over 100 µM in assay [2].
With `COc1cc(OC)c(C(=O)Nc2ccccc2)cc1OC` [2,4,5-Trimethoxy-N-phenyl-benzamide (6)], the concentration for half-maximal inhibition (IC50) is 21.9 µM in assay [1] and over 100 µM in assay [2].
As to `COc1cc(OC)c(C(=O)Nc2ccccc2OC)c(OC)c1` [2,4,6-Trimethoxy-N-(2-methoxy-phenyl)-benzamide (16)], the 50% inhibitory concentration (IC50) in assay [1] is 47.6 µM; in assay [2] it was over 100 µM.
Taken in the same sequence, the figures for `COc1cc(OC)c(C(=O)Nc2ccccc2)c(OC)c1` [2,4,6-Trimethoxy-N-phenyl-benzamide (8)] were over 100 µM and over 100 µM.
For the compound `COc1ccccc1NC(=O)c1cc(OC)c(OC)c(OC)c1` [3,4,5-Trimethoxy-N-(2-methoxy-phenyl)-benzamide (13)], the results for the IC50 in assay [1] and in assay [2] were 26.2 µM and over 100 µM, respectively.
For `COc1cc(C(=O)Nc2ccccc2)cc(OC)c1OC` [3,4,5-trimethoxy-N-phenylbenzamide (5)], the 50% inhibitory concentration (IC50) was 70.7 µM in assay [1] and over 100 µM in assay [2].
For the compound `COc1ccc(C(=O)Nc2ccc(Br)cc2)c(OC)c1OC` [N-(4-Bromo-phenyl)-2,3,4-trimethoxy-benzamide (11)], the concentration for half-maximal inhibition (IC50) in assay [1] was 19.4 µM; in assay [2] it was over 100 µM.
`COc1cc(OC)c(C(=O)Nc2ccc(Br)cc2)cc1OC` [N-(4-Bromo-phenyl)-2,4,5-trimethoxy-benzamide (10)]: the IC50 in assay [1] is 9.27 µM; in assay [2], over 100 µM.
In the same order, the values of `COc1cc(OC)c(C(=O)Nc2ccc(Br)cc2)c(OC)c1` [N-(4-Bromo-phenyl)-2,4,6-trimethoxy-benzamide (12)] are 76.2 µM and over 100 µM.
